In patent publication US5462744A, “Transdermal system for the administration of pharmacological compounds under pH-controlled conditions” (Boehringer Ingelheim KG, priority 1990, dated 1995):
“And” between values parts separate entries of the source, which are not always exact repeats. Equal entries are not always repeated. “Also recorded” adds a separate entry of the source.

Key:
[1] = pH of the skin surface underneath the system after 5 days' wearing, surface pH electrode (FIG. 6); format: in vivo, human; conditions: in the polymethacrylate matrix
From the text: The systems tested differ in their concentration of citric acid in the polymethacrylate matrix. It is clear that only a citric acid concentration of more than 1% can bring about any significant change in the surface pH of the skin. The words "values 1, 2 and 3" in FIG. 7 refer to test subjects.

[2] = transdermal administration, prior practice; cited from earlier work
[3] = Flux rate of clenbuterol through human skin depending on pH (FIG. 9); format: in vitro ADME; conditions: pH range 6.0 to 8.5 versus higher and lower pH
From the text: The flux rate of an active substance through the skin is defined as the quantity of active substance per unit of area of the skin and per unit of time and is normally given in [μg/cm^2.h].
Curve B illustrates the water solubility of the substance depending on the pH value [mg/ml]. […] (The right-hand ordinate in FIG. 9 is shown logarithmically). [μg/cm^2. h]

[4] = Permeability of pH-modified clenbuterol CPA through human skin (Franz cell release apparatus); format: in vitro ADME
Experimental: Permeability of pH-modified clenbuterol CPA through human skin:
Composition of the CPA's:
Polymethacrylate 90% 90%
A Franz cell was used as the release apparatus. This is a conventional method of testing the release of drugs from pharmaceutical formulations. Samples were taken after 24 hours and 48 hours and the clenbuterol content was determined.

O=C(O)CC(O)(CC(=O)O)C(=O)O [Citric acid, citric acid]
citric acid concentration that brings about significant change in the surface pH of the skin [1]: more than 1%

CC(C)(C)NCC(O)c1cc(Cl)c(N)c(Cl)c1 (stereo not drawn) [Clenbuterol]
constancy of blood level values [2]: has not hitherto resulted in constant blood level values
flux rate depending on pH [3]: reaches a maximum in the pH range specified above, but decreases sharply at higher and lower pH levels; also recorded: reduced drastically outside the pH range specified
diffusion rate, alkaline versus acid pH ([4]; pH 10.0 vs pH 3.5): a higher diffusion rate is found at an alkaline pH than at an acid pH
Clenbuterol Diffusion after 24 hours ([4]; pH-value 10.0 (5% Na2CO3), 24 hours, 5% clenbuterol in polymethacrylate): 7.8 μg/cm^2 and 11.44 μg/cm^2 and 9.84 μg/cm^2
Clenbuterol Diffusion after 48 hours ([4]; pH-value 10.0 (5% Na2CO3), 48 hours, 5% clenbuterol in polymethacrylate): 21.7 μg/cm^2 and 27.3 μg/cm^2 and 24.2 μg/cm^2
